Assay results reported in patent US20250270227A1, “CAMPTOTHECIN DERIVATIVE, AND PHARMACEUTICAL COMPOSITION AND USE THEREOF” (SIMCERE ZAIMING PHARMACEUTICAL CO., LTD., priority 2021, published 2025).

Experiment: Membrane permeability and transport characteristics (Caco-2 Transwell)
Type: in vitro ADME
Settings: human, pH 7.4; for efflux ratio at 2 h, 10 μM: Caco-2, Papp (B-A)/Papp (A-B); for Papp A→B at 2 h, 10 μM: Caco-2, apical to basal; for Papp B→A at 2 h, 10 μM: Caco-2, basal to apical
Experimental: The membrane permeability and transport characteristics of the compounds of the present disclosure were determined by the following experimental method.
• 1. Caco-2 cells (ATCC) • 2. HEPES (Solarbio 804D049), penicillin/streptomycin (Solarbio 20200109) and PBS (Solarbio 20200620) • 3. Fetal bovine serum (FBS) (Sigma WXBD0055V), fluorescein (Sigma MKCJ3738) and NaHCO3 (Sigma SLBZ4647) • 4. Hank's balanced salt solution (HBSS) (Gibco 2085528), non-essential amino acid (NEAA) (Gibco 2211548) and Trypsin/EDTA (Gibco 2120732) • 5. High glucose DMEM (Corning 20319014) • 6. HTS Transwell-96 Well Permeable (Corning, 3391) • 7. Resistance tester (Millipore, Millicell® ERS-2) • 8. Cellometer® Vision (Nexcelom Bioscience) • 9. Infinite 200 PRO microplate reader (Tecan, Infinite M200PRO) • 10. Positive control compounds metoprolol (Sinopharm 100084-201403), erythromycin (MCE 84550) and cimetidine (Sinopharm 100158-201406) • 11. ABI QTrap 5500 liquid chromatography-mass spectrometry
• 1) Transport buffer (HBSS containing 25 mM HEPES, pH 7.4) was prepared: 5.958 g of HEPES and 0.35 g of NaHCO3 were accurately weighed, 900 mL of pure water was added to dissolve same, then 100 mL of 10×HBSS was added, uniform stirring was performed, the pH was adjust to 7.4, and filtering was performed. • 2) Caco-2 cell culture medium was prepared: FBS, penicillin/streptomycin, kanamycin and NEAA were added to high glucose DMEM (containing L-glutamine) medium to prepare a cell culture medium containing 10% FBS, 100 U/mL penicillin/0.1 mg/mL streptomycin, 0.6 μg/mL kanamycin and 1×NEAA. • 3) Cells were cultured in T-75 culture flasks in an incubator at 37° C. and 5% CO2, and the medium was discarded when the cell growth density reached 80-90%. The cells were rinsed with 5 mL of PBS, 1.5 mL of Trypsin/EDTA was added, then the cells were incubated in an incubator at 37° C. for 5-10 min until the cells fell off in the form of quicksand, and finally Trypsin/EDTA was neutralized with an FBS-containing medium. 4) The cell suspension was centrifuged at 120 g for 10 min, and the supernatant was discarded. • 5) The cell culture medium was added to re-suspend the cells to obtain a cell suspension with a density of […] cells/mL.
• 1) 50 μL of medium was added to each well of Transwell chamber, and 25 mL of medium was added to the lower layer. The Transwell chamber was preheated in an incubator at 37° C. and 5% CO2 for 1 h. • 2) 50 μL of the cell suspension was added to each well of the preheated Transwell chamber to a final seeding density of 2.4×10^5 cells/cm. • 3) The cells were cultured for 14-18 days, the medium was changed every other day, and the medium was changed within 48 h after the initial seeding in the plate. The medium must be changed one day before the experiment.
• 1) After 14 days of cell culture, the cells were fused and differentiated, ready for transport experiment. • 2) The resistance of monolayer cell membrane was measured by the resistance tester, and the resistance of each well was recorded. • 3) After the measurement was completed, the Transwell culture plate was re-incubated. • 4) The TEER value was calculated: […]

Row | Compound | efflux ratio at 2 h, 10 μM | Papp A→B at 2 h, 10 μM | Papp B→A at 2 h, 10 μM
1 | CC[C@@]1(O)C(=O)OCc2c1cc1n(c2=O)Cc2c-1nc1cc3c(cc1c2CNC(=O)C(O)C1CC1)OCO3 (stereo partly drawn) [Compound 14, 2-cyclopropyl-N-(((S)-7-ethyl-7-hydroxy-8,11-dioxo-7,8,11,13-tetrahydro-10H-[1,3]dioxolo[4,5-g]pyrano[3′,4′:6,7]indolizino[1,2-b]quinolin-14-yl)methyl)-2-hydroxyacetamide] | 15.2 | 2.6 nm/s | 39.5 nm/s
2 | [2H]C1([2H])Oc2cc3nc4c(c(CNC(=O)C(O)C5CC5)c3cc2O1)Cn1c-4cc2c(c1=O)COC(=O)[C@]2(O)CC (stereo partly drawn) [Compound 39, 2-cyclopropyl-N-(((S)-7-ethyl-7-hydroxy-8,11-dioxo-7,8,11,13-tetrahydro-10H-[1,3]dioxolo[4,5-g]pyrano[3′,4′:6,7]indolizino[1,2-b]quinolin-14-yl-2,2-d2)methyl)-2-hydroxyacetamide] | 5.9 | 7.1 nm/s | 42.1 nm/s
